Series [1] is described as follows: In vitro stability (D/H exchange, enantiomerization, degradation) in CD-1 mouse plasma. The format is in vitro ADME. Conditions: 37° C.; for half-life: CD-1, mouse, plasma (K3EDTA), calculated half-life. How it is done: (§1) (+)-5-({p-[2-(5-ethylpyridin-2-yl)-2-oxoethoxy]phenyl}methyl)-1,3-thiazolidine-2,4-dione, (−)-5-({p-[2-(5-ethylpyridin-2-yl)-2-oxoethoxy]phenyl}methyl)-1,3-thiazolidine-2,4-dione, rac-5-({p-[2-(5-ethylpyridin-2-yl)-2-oxoethoxy]phenyl}methyl)-(5-^2H))-1,3-thiazolidine-2,4-dione (>98% deuterium at C-5 of the 1,3-thiazolidine-2,4-dione moiety; 50:50 racemic mixture of (+)- and (−)-deuterated enantiomers) were incubated in CD-1 mouse plasma (K3EDTA as anticoagulant) or human plasma (K3EDTA as anticoagulant) at 37° C. in duplicates. Aliquots (50 μL) were removed at t=0, 0.0833, 0.25, 0.5, 1, 2, 4, 8, and 16 hours and added to micro centrifuge tubes containing 10 μL of 5% w/v zinc sulfate heptahydrate in water. Samples were frozen and stored until the study was complete. After thawing on ice, 10 μL of internal standard (ISTD) spiking solution (d4-pioglitazone in acetonitrile/water 1:1) were added followed by 250 μL of methyl t-butyl ether (MTBE). A 100 μL aliquot of the organic layer was evaporated after homogeneization and reconstituted in 100 μL of 95:5 acetonitrile/0.1% formic acid in water (v/v).
(§2) The samples were analyzed semi-quantitatively by LC/MS-MS with elution on a chiral column (Daicel ChiralPak ID-3) for the separation of enantiomers (isocratic method of 5:95 v/v 0.1% formic acid in water and acetonitrile). Peak areas for the protonated and deuterated enantiomers were calculated and normalized to the area of the ISTD. Peak areas for the deuterated enantiomers (+)-5-({p-[2-(5-ethylpyridin-2-yl)-2-oxoethoxy]phenyl}methyl)-(5-2H)-1,3-thiazolidine-2,4-dione and (−)-5-({p-[2-(5-ethylpyridin-2-yl)-2-oxoethoxy]phenyl}methyl)-(5-^2H)-1,3-thiazolidine-2,4-dione were further corrected for the isotopic peak of the corresponding protonated enantiomer, (+)- and (−)-5-({p-[2-(5-ethylpyridin-2-yl)-2-oxoethoxy]phenyl}methyl)-1,3-thiazolidine-2,4-dione respectively, if present. Corrected data were analyzed and plotted using Microsoft Excel 2013 (Microsoft Corp, Redmond, Wash.) and the Excel Solver.
(§3) Scheme 3 illustrates the possible reactions in a solution of a deuterated racemate. The deuterium at the chiral center of both enantiomers, d+ and d−, can be depleted by D/H exchange to give both protonated enantiomers, h+ and h− with rate constants kD++, kD+−, kD−+, kD−. At the same time, the protonated enantiomers h+ and h−, can exchange, with enantiomerization rate constants k+− and k−+. All four compounds can also degrade with potentially different degradation rate constants kh+d, kh−d, kd+d, kd−d for enantiomers h+, h−, d+, and d−, respectively.
(§4) Human plasma stability data and mouse plasma stability data were analyzed independently. Concurrent analysis of the data for h+, h−, and deuterated racemate was performed. Calculated concentrations were obtained through numerical approximation of differential equations (1) and (2) for the stability studies of h+ and h- and equations (3) to (6) for the stability study of deuterated racemate (50:50 d+:d−) by the Euler method (equation (7)). The step between calculated time points was minimized in order to minimize the local error (proportional to the square of the step size) and the global error (proportional to the step size). […] Data analysis was performed in Microsoft Excel 2013, using the Solver Generalized Reduced Gradient Nonlinear method with central derivatives to minimize the sum of sums of weighted Δ^2, square of difference between ISTD-normalized experimental data and calculated value, divided by the calculated value.
(§5) [formula] [formula] [formula] [formula] where [h+], [h−], [d+], [d−] are the concentrations on both protonated and deuterated enantiomers, k+− and k−+ are the rate constants for the enantiomerization reactions h+ to h− and h− to h+ respectively, kD++, kD+−, kD−+, and kD− are the rate constants for the D/H exchange reactions d+ or d− to h+ or h−, and kd is the rate constant for the degradation of all four compounds. […]

A short description of series [2]: In vitro stability (D/H exchange, enantiomerization, degradation) in human plasma. Type of series: in vitro ADME. Conditions: 37° C.; for half-life: human, plasma (K3EDTA), calculated half-life. How it is done:
as §1, §2, §3, §4, §5

Where [3] appears, read: read-out: t1/2 degradation (converted).
[4] abbreviates: read-out: t1/2 enantiomerization +− (h+ to h−) (converted).
Where [5] appears, read: read-out: t1/2 enantiomerization −+ (h− to h+) (converted).

Take `[2H]C1(Cc2ccc(OCC(=O)c3ccc(CC)cn3)cc2)SC(=O)NC1=O` (racemic) [d-rac, rac-5-({p-[2-(5-ethylpyridin-2-yl)-2-oxoethoxy]phenyl}methyl)-(5-^2H)-1,3-thiazolidine-2,4-dione]: the figures for the “k d (rate constant, degradation; assumed equal for all four compounds)” value in series [1] (fitted to Equations 1 to 6) and in series [2] (fitted to Equations 1 to 6) were 0.0153 h⁻¹ and 0.00377 h⁻¹, respectively. Also, the half-life in series [1] (setting [3]) was 2720 min; in series [2] (setting [3]), 7.67 days.
With `CCc1ccc(C(=O)COc2ccc(CC3SC(=O)NC3=O)cc2)nc1` (single isomer, unassigned; (+)) [h+, (+)-5-({p-[2-(5-ethylpyridin-2-yl)-2-oxoethoxy]phenyl}methyl)-1,3-thiazolidine-2,4-dione], the entries for the “k +− (rate constant, enantiomerization h+ to h−)” value in series [1] (fitted to Equations 1 to 6) and in series [2] (fitted to Equations 1 to 6) were 0.504 h⁻¹ and 0.308 h⁻¹, respectively. In addition, the “k d (rate constant, degradation; assumed equal for all four compounds)” value in series [1] (fitted to Equations 1 to 6) worked out at 0.0153 h⁻¹; in series [2] (fitted to Equations 1 to 6), 0.00377 h⁻¹. Further, the half-life in series [1] (setting [3]) is 2720 min; in series [1] (setting [4]), 84 min; in series [2] (setting [3]), 7.67 days; in series [2] (setting [4]), 0.0917 days.
In the case of `CCc1ccc(C(=O)COc2ccc(CC3SC(=O)NC3=O)cc2)nc1` (single isomer, unassigned; (-)) [h−, (−)-5-({p-[2-(5-ethylpyridin-2-yl)-2-oxoethoxy]phenyl}methyl)-1,3-thiazolidine-2,4-dione], the results for the “k −+ (rate constant, enantiomerization h− to h+)” value in series [1] (fitted to Equations 1 to 6) and in series [2] (fitted to Equations 1 to 6) were 0.594 h⁻¹ and 0.359 h⁻¹, respectively. For the same compound, the results for the half-life in series [1] (setting [5]) and in series [2] (setting [5]) were 72 min and 0.0792 days, respectively.

Values taken from patent publication US9833445B2, “5-deutero-2,4-thiazolidinedione derivatives and compositions comprising and methods of using the same” (DeuteRx, LLC, priority 2013, dated 2017).
